Here are results for two compounds from patent US20250161306A1, “UBIQUITIN-SPECIFIC-PROCESSING PROTEASE 1 (USP1) INHIBITORS FOR THE TREATMENT OF SOLID TUMORS” (KSQ Therapeutics, Inc., priority 2022, published 2025).

A short description of series [1]: Distribution in rat brain and plasma after single oral dose. Conditions: 100 mg/kg single oral dose; for AUC0-∞: brain. The class given is in vivo, Sprague Dawley rats. Here is the method: Male and female Sprague Dawley rats were purchased from Beijing Anikeeper Biotech Co, Ltd. Animals were habituated to the environment prior to study initiation. Rats were dosed with single dose of 100 mg/kg crystalline Form 2 via oral gavage. The rats were fasted overnight prior to dosing. Animals had access to food from 2 hours post dose and free access to water throughout the study. Approximately 0.2 mL of blood was sampled via jugular vein at each time point and centrifuged at 4000G for 5 minutes at 4° C. to provide plasma. Samples were then stored in a freezer at −75±15° C. prior to LC-MS/MS analysis. Whole brain was collected after hemoperfusion and snap frozen on dry ice prior to storage at −75±15° C. Prior to LC-MS/MS analysis whole brains were weighed and homogenized with water by tissue weight (g) to water volume (ml) ratio 1:3 before analysis. Actual concentration is the measured value multiplied by the dilution factor. The PK data were described using descriptive statistics such as mean with standard deviation.

Series [2] in a line: Mouse pharmacokinetic study, single oral dose, plasma by LC-MS/MS. The series is classed as in vivo, female NOD/SCID mice. Conditions: for AUClast / Cmax / T1/2 / Tmax: 300 mg/kg single oral dose, plasma, 300 mg/kg. The protocol:
Mouse pharmacokinetic (PK) studies were conducted using Crystalline Form A of 6-(4-cyclopropyl-6-methoxypyrimidin-5-yl)-1-(4-(1-isopropyl-4-(trifluoromethyl)-1H-imidazol-2-yl)benzyl)-1H-pyrazolo[3,4-d]pyrimidine, as disclosed herein and Crystalline Form 2 of a gentisic acid co-crystal of 6-(4-cyclopropyl-6-methoxypyrimidin-5-yl)-1-(4-(1-isopropyl-4-(trifluoromethyl)-1H-imidazol-2-yl)benzyl)-1H-pyrazolo[3,4-d]pyrimidine, as disclosed herein.
The PK studies consisted of single dose oral exposure studies, which were conducted in female NOD/SCID mice (approximately 6 to 8 weeks, and 20-30 g at the time of study) using a compound dose of 300 mg/kg and a dosing volume of 10 mL/kg. The mice were fasted overnight prior to dosing. Animals had free access to food and water post-dosing.
Blood was sampled serially from the dorsal metatarsal vein at pre-dose, 0.25, 0.5, 1, 2, 4, 8, 24, 48 (crystalline Form 2 only), and 72 hours (crystalline Form 2 only) post PO dosing. Approximately 0.03 mL blood was collected at each time point and centrifuged at 4000 G for 5 minutes at 4° C. to provide plasma. The plasma samples were then stored in a freezer at −75±15° C. prior to LC-MS/MS analysis.
Concentrations of each compound in the plasma samples were then analyzed using an LC-MS/MS method. WinNonlin (Phoenix™, version 6.1) or other similar software was used for PK calculations. The following PK parameters were calculated, whenever possible from the plasma concentration versus time data: Cmax, Tmax, T1/2, AUCinf, and AUClast. The PK data were described using descriptive statistics such as mean with standard deviation.

Series [3] can be described thus: Distribution in mouse brain and plasma after repeated oral dosing. Conditions: 100 or 300 mg/kg oral for 28 days. The series is classed as in vivo, female NOD SCID mice. The protocol: Female NOD SCID mice of an age between 6-8 weeks and a body weight range of 18-22 g were purchased from Beijing Anikeeper Biotech Co, Ltd. Animals were habituated to the environment for at least 7 days prior to study initiation. Mice were dosed with Crystalline Form 2 at either 100 mg/kg or 300 mg/kg dose levels via oral gavage for 28 days. After 24 hours following 27 doses of compound, three mice were euthanized via CO2. After four hours following 28 doses of compound, three mice were euthanized via CO2. At each time point the whole brain was collected. In addition, approximately 0.03 mL of blood was collected at each time point and centrifuged at 4000G for 5 minutes at 4° C. to provide plasma. Samples were then stored in a freezer at −75±15° C. prior to LC-MS/MS analysis. Concentrations of compound in brain homogenates (ng/g) and plasma (ng/ml) were then analyzed using an LC-MS/MS method. The PK data were described using descriptive statistics such as mean with standard deviation.

Each structure is given as a SMILES string.

For orientation: Cmax means the highest concentration seen after dosing. As a reminder, the Tmax is the time at which the peak concentration occurs. On to `COc1ncnc(C2CC2)c1-c1ncc2cnn(Cc3ccc(-c4nc(C(F)(F)F)cn4C(C)C)cc3)c2n1` [Crystalline Form 2, 6-(4-cyclopropyl-6-methoxypyrimidin-5-yl)-1-(4-(1-isopropyl-4-(trifluoromethyl)-1H-imidazol-2-yl)benzyl)-1H-pyrazolo[3,4-d]pyrimidine], for which the “drug level in the brain tissue” value in series [1] (male and female rats) is listed as “measurable drug level”; in series [3] it was “measurable drug level”. Moreover, the “AUC0-∞” value in series [1] (Female rats) is 120933 ng·h/g; in series [1] (Male rats), 60596 ng·h/g. Also, the AUClast in series [2] (Mean) was found to be 752.45 µg·h/mL; in series [2] (Mouse 7), 827.348 µg·h/mL; in series [2] (Mouse 8), 835.713 µg·h/mL; in series [2] (Mouse 9), 594.288 µg·h/mL. Besides, the Cmax in series [2] (Mean) amounted to 28900 ng/mL; in series [2] (Mouse 7), 28800 ng/mL; in series [2] (Mouse 8), 28900 ng/mL; in series [2] (Mouse 9), 29000 ng/mL. For the same compound, the T1/2 in series [2] (Mean) turned out to be 4.17 h; in series [2] (Mouse 8) it was 4.22 h; in series [2] (Mouse 9), 4.27 h. The time of peak concentration (Tmax) in series [2] (Mean) is reported as 10.7 h; in series [2] (Mouse 8), 12.0 h; in series [2] (Mouse 9) it was 12.0 h. The “mouse oral exposure levels compared to crystalline Form A (freebase)” value in series [2] (about 300 mg/kg) is on record as “higher exposure levels”. Also, the “accumulation of the drug in the brain after repeated dosing” value in series [3] is “no apparent accumulation”.

Consider `COc1ncnc(C2CC2)c1-c1ncc2cnn(Cc3ccc(-c4nc(C(F)(F)F)cn4C(C)C)cc3)c2n1` [Crystalline Form A, 6-(4-cyclopropyl-6-methoxypyrimidin-5-yl)-1-(4-(1-isopropyl-4-(trifluoromethyl)-1H-imidazol-2-yl)benzyl)-1H-pyrazolo[3,4-d]pyrimidine], for which, in series [2] (Mean), the AUClast amounted to 60.663 µg·h/mL, the peak concentration (Cmax) stood at 3697 ng/mL, the T1/2 is given as 12.7 h and the Tmax is 5.33 h. In series [2] (Mouse 7), the AUClast was 72.653 µg·h/mL and the Cmax is 4450 ng/mL. In series [2] (Mouse 8), the AUClast worked out at 40.678 µg·h/mL, the maximum concentration (Cmax) stood at 2890 ng/mL and the Tmax is reported as 4.00 h. Besides, in series [2] (Mouse 9), the AUClast was 68.658 µg·h/mL, the Cmax is listed as 3750 ng/mL, the T1/2 is 18.6 h and the time to peak (Tmax) turned out to be 4.00 h.
